Literature values, collected in article PMC6719874 (PLoS ONE, 2019).
“Also recorded” adds a separate entry of the source.

Columns and labels:
L-type calcium channels = test system: L-type calcium channels; parameters: method as in PMID 17125805, PMID 19887376
[1] = test system: tumors / human xenografts
Y652A hERG = molecular target: T1, Y652A hERG (Homo sapiens, UniProt Q12809, Y652A); settings: Y652A ref 87
T1 construct: host or cells: Xenopus laevis oocytes injected with cRNA

F656A hERG = F656A hERG (Homo sapiens, UniProt Q12809, F656A); settings: F656A ref 87
F656A hERG, sequence (Q12809 whole entry F656A): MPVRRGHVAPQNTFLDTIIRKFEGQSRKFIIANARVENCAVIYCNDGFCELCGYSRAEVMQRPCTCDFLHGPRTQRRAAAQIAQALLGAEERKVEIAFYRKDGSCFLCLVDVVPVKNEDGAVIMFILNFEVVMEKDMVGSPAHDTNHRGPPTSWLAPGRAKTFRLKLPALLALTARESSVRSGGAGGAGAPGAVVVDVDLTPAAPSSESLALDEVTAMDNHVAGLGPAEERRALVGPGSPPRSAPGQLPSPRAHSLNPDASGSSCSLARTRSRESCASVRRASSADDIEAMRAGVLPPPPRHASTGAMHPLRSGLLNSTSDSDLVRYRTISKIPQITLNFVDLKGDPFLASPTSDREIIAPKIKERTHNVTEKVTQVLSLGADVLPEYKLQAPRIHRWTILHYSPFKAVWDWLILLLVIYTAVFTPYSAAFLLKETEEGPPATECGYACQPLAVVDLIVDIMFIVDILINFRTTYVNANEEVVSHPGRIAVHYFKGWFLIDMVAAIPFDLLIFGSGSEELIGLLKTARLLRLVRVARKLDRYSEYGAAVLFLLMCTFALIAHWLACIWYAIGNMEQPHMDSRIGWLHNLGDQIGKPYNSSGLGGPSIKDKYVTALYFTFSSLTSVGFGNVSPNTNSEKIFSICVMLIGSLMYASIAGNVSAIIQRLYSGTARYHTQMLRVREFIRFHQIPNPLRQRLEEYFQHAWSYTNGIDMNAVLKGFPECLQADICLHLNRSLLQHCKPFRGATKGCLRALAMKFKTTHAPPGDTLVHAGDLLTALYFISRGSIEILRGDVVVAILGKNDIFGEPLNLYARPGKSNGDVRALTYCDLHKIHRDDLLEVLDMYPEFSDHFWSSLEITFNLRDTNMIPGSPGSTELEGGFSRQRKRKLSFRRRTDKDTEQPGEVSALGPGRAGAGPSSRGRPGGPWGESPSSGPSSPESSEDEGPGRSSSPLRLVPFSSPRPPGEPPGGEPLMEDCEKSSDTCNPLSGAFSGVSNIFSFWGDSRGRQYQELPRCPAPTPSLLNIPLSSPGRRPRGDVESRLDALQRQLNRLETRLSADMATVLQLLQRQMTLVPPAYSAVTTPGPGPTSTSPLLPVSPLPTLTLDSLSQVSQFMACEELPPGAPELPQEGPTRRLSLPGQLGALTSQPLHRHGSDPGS

T1 sequence (Q12809 whole entry Y652A): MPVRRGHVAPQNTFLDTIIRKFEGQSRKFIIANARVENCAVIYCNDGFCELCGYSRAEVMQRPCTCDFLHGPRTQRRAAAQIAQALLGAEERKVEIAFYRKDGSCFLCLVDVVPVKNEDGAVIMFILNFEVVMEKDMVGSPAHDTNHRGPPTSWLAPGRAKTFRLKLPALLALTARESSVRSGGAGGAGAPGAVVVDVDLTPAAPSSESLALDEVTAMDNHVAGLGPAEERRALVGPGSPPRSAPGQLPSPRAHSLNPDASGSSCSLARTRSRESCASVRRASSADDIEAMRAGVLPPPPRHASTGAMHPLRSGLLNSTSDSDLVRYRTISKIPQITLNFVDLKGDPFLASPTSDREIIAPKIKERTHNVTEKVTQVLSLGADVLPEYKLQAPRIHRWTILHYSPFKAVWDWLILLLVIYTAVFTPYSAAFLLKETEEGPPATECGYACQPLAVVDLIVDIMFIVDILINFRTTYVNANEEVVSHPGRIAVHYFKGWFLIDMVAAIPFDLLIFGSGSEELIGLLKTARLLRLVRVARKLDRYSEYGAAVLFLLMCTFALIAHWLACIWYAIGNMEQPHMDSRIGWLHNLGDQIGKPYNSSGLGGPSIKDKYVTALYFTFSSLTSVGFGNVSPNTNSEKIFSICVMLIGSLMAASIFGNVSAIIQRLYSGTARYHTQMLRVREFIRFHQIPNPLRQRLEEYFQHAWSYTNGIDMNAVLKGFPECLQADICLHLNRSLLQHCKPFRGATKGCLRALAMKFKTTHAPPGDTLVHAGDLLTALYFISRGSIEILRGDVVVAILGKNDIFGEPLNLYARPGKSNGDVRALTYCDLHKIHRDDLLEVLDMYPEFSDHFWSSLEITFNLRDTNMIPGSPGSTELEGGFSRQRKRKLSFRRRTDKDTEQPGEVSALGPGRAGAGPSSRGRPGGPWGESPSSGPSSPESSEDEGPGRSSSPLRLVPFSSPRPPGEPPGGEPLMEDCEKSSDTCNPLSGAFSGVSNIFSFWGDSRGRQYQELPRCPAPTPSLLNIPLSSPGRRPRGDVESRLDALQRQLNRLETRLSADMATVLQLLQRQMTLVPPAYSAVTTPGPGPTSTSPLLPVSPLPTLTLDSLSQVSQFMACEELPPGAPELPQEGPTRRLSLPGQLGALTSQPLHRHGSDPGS

Row | Structure (SMILES) | inhibition of S620T compared to WT (S620T hERG) | potency of inhibition (L-type calcium channels) | tumor suppression ([1]; mice ref 75-77) | growth delay of human xenografts ([1]; mice ref 78) | QT prolongation or other cardiac side effects (clinical trial, range of concentrations ref 18) | tolerability (phase II clinical trials) | fold change in IC50 in relation to WT (Y652A hERG) | fold change in IC50 in relation to WT (F656A hERG)
1 | CCC(CO)Nc1nc(NCc2ccccc2)c2ncn(C(C)C)c2n1 (centres unmarked) [R-roscovitine, 2-(1-ethyl-2-hydroxyethylamino)-6-benzylamino-9-isopropylpurine] | similar; also recorded: not different from WT inhibition | ~ 25 μM | significant tumor suppression | significant growth delay | did not find QT prolongation or other cardiac side effects | well tolerated |  | 
2 | Cc1cccc(C)c1OCC(C)N (centres unmarked) [mexiletine] |  |  |  |  |  |  | ~ 12 fold | ~ 28 fold
